Data set [1] is described as follows: Rose Bengal release from dense PCL capsules with silicone oil carriers into PBS. The data set is classed as physicochemical. The following applies: Silikon 1000 in dense PCL capsule.
For data set [2] the following is noted: assumed input value, ref (20); cited from earlier work.

SMILES strings stand for the structures.

As for `O=C([O-])c1c(Cl)c(Cl)c(Cl)c(Cl)c1-c1c2cc(I)c(=O)c(I)c-2oc2c(I)c([O-])c(I)cc12.[Na+].[Na+]` [Rose Bengal, Rose Bengal sodium salt], in data set [1], the “dissolution of Rose Bengal in hydrophobic silicone oil” value was “never dissolves in the oil”. Besides, the “RB diffusivity in PBS” value in data set [2] is 4.8×10^−10 m^2 s^−1.

The record behind these values is patent US20250090466A1, “DRUG DELIVERY COMPOSITIONS AND DEVICES” (Ohio State Innovation Foundation, priority 2022, published 2025).
